This note sets out measurements from US11433086B2, “Combination of T-cell checkpoint inhibitors with inhibitors of e-selectin or CXCR4, or with heterobifunctional inhibitors of both E-selectin and CXCR4” (GlycoMimetics, Inc., priority 2016, dated 2022).

The experiment concerns the target T1, CXCR4 (Homo sapiens, UniProt P61073).
T1 construct: host or cells: Raji cells
The experiment in a line: Flow based competitive binding assay, anti-CXCR4 antibody binding to Raji cells. The note with it: phycoerythrin-conjugated anti-CXCR4 antibody. As to the method:
FIG. 21 relates to an experiment carried out to determine the competitive binding activity (IC50) of GMI-1359 against E-selectin and CXCR4. GMI-1359 was assessed for inhibition of sialyl Le^X binding to immobilized E-selectin and α-CXCR4 antibody binding to Raji cells.
The inhibition assay to screen GMI-1359 as an antagonist of CXCR4 was a flow based competitive binding assay, which allowed the determination of […] values. Raji cells (ATCC number TIB-152) were washed twice with Hanks Balanced Saline Solution (HBSS) containing 0.05% bovine serum albumin (BSA). After the second wash, the cells were resuspended to about 2.5×10^6 cells per mL and 80 μl of cells (approximately 2×10^5 cells) were added to BD 2063 tubes. Next, 10 μl of either GMI-1359 or HBSS/BSA (as a negative control) were added to the cells and the tube was placed at room temperature for 10 minutes. Then, 10 μl of a phycoerythrin-conjugated anti-CXCR4 antibody (R&D Systems, FAB170P) or as a negative control, 10 μl of an isotype control antibody (R&D Systems, IC003P) was added to the cells with HBSS/BSA. The antibodies were allowed to bind to the cells for 1 hour at 4° C. […] Binding of the anti-CXCR4-PE antibody to the cells was assessed by flow cytometry, and the median fluorescent intensity was determined. […]

T1 sequence (P61073 whole entry): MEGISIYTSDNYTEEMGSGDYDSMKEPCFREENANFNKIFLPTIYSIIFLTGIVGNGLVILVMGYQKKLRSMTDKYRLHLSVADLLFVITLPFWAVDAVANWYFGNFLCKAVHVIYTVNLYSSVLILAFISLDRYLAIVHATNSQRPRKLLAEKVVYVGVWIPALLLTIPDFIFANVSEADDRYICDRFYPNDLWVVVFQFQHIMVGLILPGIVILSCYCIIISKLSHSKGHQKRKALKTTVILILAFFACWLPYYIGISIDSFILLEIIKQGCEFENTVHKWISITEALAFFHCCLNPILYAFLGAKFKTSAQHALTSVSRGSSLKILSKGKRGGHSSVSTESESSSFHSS

For `CCC1CC(C(=O)NCCNCc2ccc(CN3CCCNCCNCCCNCC3)c(Br)c2)CC(OC2OC(CO)C(O)C(O[C@@H](CC3CCCCC3)C(=O)O)C2NC(C)=O)C1OC1OC(C)C(O)C(O)C1O` (stereo partly shown) [GMI-1359], the “inhibition of anti-CXCR4 antibody binding” value is listed as “inhibits ligand binding”.
